Columns and labels:
LoVo = assay: cells; details: Homo sapiens, LoVo, 48 h; for GI50: read-out: LOVO GI50; for CC50: read-out: LOVO LC50; for IC (TGI): read-out: LOVO TGI
Procedure, shortened: (§1)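 Colorimetric SRB read (490 nm) on triplicate wells after 48 h at 37 °C, 5% CO2. Dose range 10 to 10^−8 μg/ml; 5×10^3 cells/well pre-attached 18 h.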

A-549 = assay: cells; details: Homo sapiens, A549, 48 h; for GI50: read-out: A549 GI50; for CC50: read-out: A549 LC50; for IC (TGI): read-out: A549 TGI
Procedure, shortened: as §1

HT-29 = assay: cells; details: Homo sapiens, HT-29, 48 h; for GI50: read-out: HT29 GI50; for CC50: read-out: HT29 LC50; for IC (TGI): read-out: HT29 TGI
Procedure, shortened: as §1

LNCaP = assay: Inhibition of cells growth by colorimetric assay (SRB); details: Homo sapiens, LNCaP, 48 h; for GI50: read-out: LNCAP GI50; for CC50: read-out: LNCAP LC50; for IC (TGI): read-out: LNCAP TGI
Procedure, shortened: as §1

IGROV-ET = assay: as above; details: Homo sapiens, 48 h; for GI50: read-out: IGROV-ET GI50; for CC50: read-out: IGROV-ET LC50; for IC (TGI): read-out: IGROV-ET TGI
Procedure, shortened: as §1

DU-145 = assay: as above; details: Homo sapiens, DU-145, 48 h; for GI50: read-out: DU145 GI50; for CC50: read-out: DU145 LC50; for IC (TGI): read-out: DU145 TGI
Procedure, shortened: as §1

K-562 = assay: as above; details: Homo sapiens, K562, 48 h; for GI50: read-out: K562 GI50; for CC50: read-out: K562 LC50; for IC (TGI): read-out: K562 TGI
Procedure, shortened: as §1

LoVo-Dox = assay: as above; details: Homo sapiens, 48 h; for GI50: read-out: LOVO-DOX GI50; for CC50: read-out: LOVO-DOX LC50; for IC (TGI): read-out: LOVO-DOX TGI
Procedure, shortened: as §1

HeLa = assay: as above; details: Homo sapiens, HeLa, 48 h; for GI50: read-out: HELA GI50; for CC50: read-out: HELA LC50; for IC (TGI): read-out: HELA TGI
Procedure, shortened: as §1

IGROV-1 = assay: as above; details: Homo sapiens, IGROV-1, 48 h; for GI50: read-out: IGROV GI50; for CC50: read-out: IGROV LC50; for IC (TGI): read-out: IGROV TGI
Procedure, shortened: as §1

SK-MEL-28 = assay: as above; details: Homo sapiens, SK-MEL-28, 48 h; for GI50: read-out: MEL-28 GI50; for CC50: read-out: MEL-28 LC50; for IC (TGI): read-out: MEL-28 TGI
Procedure, shortened: as §1

SK-BR-3 = assay: as above; details: Homo sapiens, SK-BR-3, 48 h; for GI50: read-out: SK-BR3 GI50; for CC50: read-out: SK-BR3 LC50; for IC (TGI): read-out: SK-BR3 TGI
Procedure, shortened: as §1

HeLa-APL = assay: as above; details: Homo sapiens, 48 h; for GI50: read-out: HELA-APL GI50; for CC50: read-out: HELA-APL LC50
Procedure, shortened: as §1

PANC-1 = assay: as above; details: Homo sapiens, PANC-1, 48 h; for GI50: read-out: PANC-1 GI50; for CC50: read-out: PANC-1 LC50; for IC (TGI): read-out: PANC-1 TGI
Procedure, shortened: as §1

C=CCN1[C@@H]2c3c(cc(C)c(OC)c3O)C[C@H]1[C@H](C#N)N1C2[C@@H]2SC[C@]3(NCCc4cc(OC(=O)OC(C)(C)C)c(OC)cc43)C(=O)OC[C@H]1c1c3c(c(C)c(OC(=O)/C=C/c4ccccc4)c12)OCO3 (stereo partly shown) [compound 47]
GI50 (LoVo): 9.16 µM | CC50 (LoVo): 10.2 µM | IC (TGI) (LoVo): 10.2 µM | GI50 (A-549): 10.2 µM | CC50 (A-549): 10.2 µM | IC (TGI) (A-549): 10.2 µM | GI50 (HT-29): 10.2 µM | CC50 (HT-29): 10.2 µM | IC (TGI) (HT-29): 10.2 µM | GI50 (LNCaP): 0.449 µM | CC50 (LNCaP): 10.2 µM | IC (TGI) (LNCaP): 2.92 µM | GI50 (IGROV-ET): 4.92 µM | CC50 (IGROV-ET): 10.2 µM | IC (TGI) (IGROV-ET): 10.2 µM | GI50 (DU-145): 4.12 µM | CC50 (DU-145): 10.2 µM | IC (TGI) (DU-145): 10.2 µM | GI50 (K-562): 0.173 µM | CC50 (K-562): 10.2 µM | IC (TGI) (K-562): 2.32 µM | GI50 (LoVo-Dox): 10.2 µM | CC50 (LoVo-Dox): 10.2 µM | IC (TGI) (LoVo-Dox): 10.2 µM | GI50 (HeLa): 4.1 µM | CC50 (HeLa): 10.2 µM | IC (TGI) (HeLa): 10.2 µM | GI50 (IGROV-1): 4.22 µM | CC50 (IGROV-1): 10.2 µM | IC (TGI) (IGROV-1): 10.2 µM | GI50 (SK-MEL-28): 8.7 µM | CC50 (SK-MEL-28): 10.2 µM | IC (TGI) (SK-MEL-28): 10.2 µM | GI50 (SK-BR-3): 0.301 µM | CC50 (SK-BR-3): 10.2 µM | IC (TGI) (SK-BR-3): 1.37 µM | GI50 (HeLa-APL): 3.74 µM | CC50 (HeLa-APL): 10.2 µM | GI50 (PANC-1): 10.2 µM | CC50 (PANC-1): 10.2 µM | IC (TGI) (PANC-1): 10.2 µM

COc1c(C)cc2c(c1O)[C@H]1N[C@@H](C2)[C@H](C#N)N2C1[C@@H]1SC[C@]3(NCCc4c3[nH]c3ccc(C)cc43)C(=O)OC[C@H]2c2c3c(c(C)c(OC(C)=O)c21)OCO3 (stereo partly shown) [compound 62]
GI50 (LoVo): 0.00503 µM | CC50 (LoVo): 1.54 µM | IC (TGI) (LoVo): 0.0179 µM | GI50 (A-549): 0.00456 µM | CC50 (A-549): 0.334 µM | IC (TGI) (A-549): 0.0165 µM | GI50 (HT-29): 0.00403 µM | CC50 (HT-29): 12.5 µM | IC (TGI) (HT-29): 0.283 µM | GI50 (LNCaP): 0.00301 µM | CC50 (LNCaP): 0.0084 µM | IC (TGI) (LNCaP): 0.00503 µM | GI50 (IGROV-ET): 0.0266 µM | CC50 (IGROV-ET): 2.92 µM | IC (TGI) (IGROV-ET): 0.0695 µM | GI50 (DU-145): 0.0033 µM | CC50 (DU-145): 3.59 µM | IC (TGI) (DU-145): 0.0104 µM | GI50 (K-562): 0.00194 µM | CC50 (K-562): 6.02 µM | IC (TGI) (K-562): 0.011 µM | GI50 (LoVo-Dox): 0.136 µM | CC50 (LoVo-Dox): 13.1 µM | IC (TGI) (LoVo-Dox): 0.558 µM | GI50 (HeLa): 0.00237 µM | CC50 (HeLa): 0.011 µM | IC (TGI) (HeLa): 0.00511 µM | GI50 (IGROV-1): 0.00259 µM | CC50 (IGROV-1): 3.9 µM | IC (TGI) (IGROV-1): 0.00655 µM | GI50 (SK-MEL-28): 0.00246 µM | CC50 (SK-MEL-28): 0.00978 µM | IC (TGI) (SK-MEL-28): 0.00492 µM | GI50 (SK-BR-3): 0.00101 µM | CC50 (SK-BR-3): 0.103 µM | IC (TGI) (SK-BR-3): 0.00474 µM | GI50 (HeLa-APL): 0.0023 µM | CC50 (HeLa-APL): 0.0103 µM | IC (TGI) (HeLa-APL; read-out: HELA-APL TGI): 0.00488 µM | GI50 (PANC-1): 0.00386 µM | CC50 (PANC-1): 4.75 µM | IC (TGI) (PANC-1): 0.0135 µM

C=CCN1[C@@H]2c3c(cc(C)c(OC)c3O)C[C@H]1[C@H](C#N)N1C2[C@@H]2SC[C@]3(NCCc4cc(O)c(OC)cc43)C(=O)OC[C@H]1c1c3c(c(C)c(OC(=O)CCCCCCC)c12)OCO3 (stereo partly shown) [compound 50]
GI50 (LoVo): 4.94 µM | CC50 (LoVo): 11.3 µM | IC (TGI) (LoVo): 11.3 µM | GI50 (A-549): 3.76 µM | CC50 (A-549): 11.3 µM | IC (TGI) (A-549): 11.3 µM | GI50 (HT-29): 8.9 µM | CC50 (HT-29): 11.3 µM | IC (TGI) (HT-29): 11.3 µM | GI50 (LNCaP): 0.948 µM | CC50 (LNCaP): 11.3 µM | IC (TGI) (LNCaP): 3.68 µM | GI50 (IGROV-ET): 3.29 µM | CC50 (IGROV-ET): 11.3 µM | IC (TGI) (IGROV-ET): 11.3 µM | GI50 (DU-145): 1.8 µM | CC50 (DU-145): 1130 µM | IC (TGI) (DU-145): 918 µM | GI50 (K-562): 0.891 µM | CC50 (K-562): 11.3 µM | IC (TGI) (K-562): 11.3 µM | GI50 (LoVo-Dox): 10.1 µM | CC50 (LoVo-Dox): 11.3 µM | IC (TGI) (LoVo-Dox): 11.3 µM | GI50 (HeLa): 3.75 µM | CC50 (HeLa): 11.3 µM | IC (TGI) (HeLa): 11.3 µM | GI50 (IGROV-1): 2.42 µM | CC50 (IGROV-1): 1130 µM | IC (TGI) (IGROV-1): 11.3 µM | GI50 (SK-MEL-28): 2.53 µM | CC50 (SK-MEL-28): 11.3 µM | IC (TGI) (SK-MEL-28): 8.36 µM | GI50 (SK-BR-3): 13.1 µM | CC50 (SK-BR-3): 11.3 µM | IC (TGI) (SK-BR-3): 11.3 µM | GI50 (HeLa-APL): 3.11 µM | CC50 (HeLa-APL): 11.3 µM | GI50 (PANC-1): 2.45 µM | CC50 (PANC-1): 11.3 µM | IC (TGI) (PANC-1): 11.3 µM
